Values quoted from earlier work, collected in patent publication US20060063833A1, “Ready-to-use oxaliplatin solutions” (priority 2004, published 2006).

Legend:
[1] = at least at concentrations below 1 mg/ml

For `O=C1[O][Pt-2]2([NH2+]C3CCCC[C@H]3[NH2+]2)[O]C1=O` (stereo partly drawn) [Oxaliplatin, cis-oxalato-(trans-1,2-cyclohexanediamine)-platinum(II)], the solubility in ethanol (ethanol) is given as “practically insoluble”, the solubility in methanol (methanol) is given as “scarcely soluble” and the solubility in water (water) is given as “soluble”. The stability in water [1] was “not very stable”.
